Our source for the IC50 and melting point values is US7705030B2, “Amino-5-(5-membered)hetero-arylimidazolone compounds and the use thereof for β-secretase modulation” (Wyeth LLC, priority 2005, dated 2010).

One data set concerns the target human BACE1 (Homo sapiens, UniProt P56817). The data set is described as follows: Fluorescent kinetic assay: Evaluation of BACE-1 Binding Affinity of Test Compounds. It counts as biochemical. As to conditions: 10 nM enzyme, 25 μM substrate WABC-6, 50 mM Na-Acetate pH 4.5, room temperature. The method, boiled down: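 Run with 10 nM human BACE1 and 25 μM WABC-6 FRET peptide in 50 mM Na-acetate pH 4.5, 0.05% CHAPS, 25% PBS at room temperature. Fluorescence (ex 320/em 420 nm) was read every 40 sec for 30 min, and initial cleavage rates were taken from linear slopes across ≥10 inhibitor concentrations.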

pIC50: −log10 of the molar value.

Sequence of human BACE1 (P56817 46-501): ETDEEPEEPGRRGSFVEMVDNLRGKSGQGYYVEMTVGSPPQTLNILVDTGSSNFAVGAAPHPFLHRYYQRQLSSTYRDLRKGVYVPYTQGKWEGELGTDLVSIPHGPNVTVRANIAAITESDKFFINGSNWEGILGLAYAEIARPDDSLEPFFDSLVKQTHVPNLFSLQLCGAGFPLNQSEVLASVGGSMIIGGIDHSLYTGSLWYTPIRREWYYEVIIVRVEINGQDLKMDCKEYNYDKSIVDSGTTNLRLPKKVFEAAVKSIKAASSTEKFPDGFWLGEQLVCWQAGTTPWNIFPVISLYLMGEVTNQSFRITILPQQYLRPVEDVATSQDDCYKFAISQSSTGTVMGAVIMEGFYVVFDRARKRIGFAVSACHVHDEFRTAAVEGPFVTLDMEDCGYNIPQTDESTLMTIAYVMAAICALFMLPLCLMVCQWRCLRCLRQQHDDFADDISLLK

In general, pIC50 refers to the IC50 on a negative log10 scale, so that one unit is a factor of ten. Read a high pIC50 as a small IC50. Broadly, the melting point is the temperature of the solid-liquid transition. As to `Cc1nc(F)ccc1-c1cccc(C2(c3ccsc3)N=C(N)N(C)C2=O)c1` (stereo not shown) [Example 36], the melting point worked out at 140 °C. The molecule also had a pIC50 on human BACE1 of less than 6.00.

`CCn1cc(C2(c3cccc(-c4cccnc4F)c3)N=C(N)N(C)C2=O)cc1C(=O)c1ccccc1` (stereo not shown) [Example 170]: the melting point lay within 104 to 106 °C. The pIC50 on human BACE1 is 7.00 to 8.00.

Turning to `CCCCCOc1cccc(C2(c3cc(C(=O)CC)n(CC)c3)N=C(N)N(C)C2=O)c1` (stereo not shown) [Example 133], the melting point was 70 °C. The molecule also showed a pIC50 at human BACE1 of 7.00 to 8.00.

Consider `CN1C(=O)C(c2cc[nH]c2)(c2cccc(OCc3ccccc3)c2)N=C1N` (stereo not shown) [Example 58, 2-amino-5-(3-benzyloxyphenyl)-5-(1H-pyrrol-3-yl)-3-methyl-3,5-dihydro-4H-imidazol-4-one], for which the melting point lay within 98 to 100 °C. Further, the pIC50 on human BACE1 was less than 6.00.

Molecule `CCC(=O)c1cc(C2(c3cccc(NC(=O)COC)c3)N=C(N)N(C)C2=O)cn1CC` (stereo not shown) [Example 131, N-{3-[2-amino-4-(1-ethyl-5-propionyl-1H-pyrrol-3-yl)-1-methyl-5-oxo-4,5-dihydro-1H-imidazol-4-yl]-phenyl}-2-methoxy-acetamide] displayed a melting point of 95 to 115 °C. Moreover, the pIC50 on human BACE1 was 7.00 to 8.00.

In the case of `CCOc1ccc(C2(c3cc(C(=O)NC)n(CC)c3)N=C(N)N(C)C2=O)cc1-c1cccnc1F` (stereo not shown) [Example 128], the melting point is 148 to 150 °C. The molecule also gave a pIC50 at human BACE1 of less than 6.00.

Molecule `CCn1cc([C@]2(c3cccc(-c4cccnc4F)c3)N=C(N)N(C)C2=O)cc1C(C)=O` [Example 187, (5S)-5-(5-Acetyl-1-ethyl-1H-pyrrol-3-yl)-2-amino-5-[3-(2-fluoropyridin-3-yl)phenyl]-3-methyl-3,5-dihydro-4H-imidazol-4-one] registered a melting point of 109 to 111 °C. Further, at human BACE1, the pIC50 is 7.00 to 8.00.

`CCc1cc(C2(c3cccc(-c4cncnc4)c3)N=C(N)N(C)C2=O)c(C)s1` (stereo not shown) [Example 31] registered a melting point of 128 to 134 °C. In addition, the pIC50 at human BACE1 was 6.00 to 6.96.

In turn, `CCCCCC(=O)c1cc(C2(c3cccc(-c4cccnc4F)c3)N=C(N)N(C)C2=O)cn1CC` (stereo not shown) [Example 169] came in with a melting point of 71 to 73 °C. Besides, on human BACE1, the pIC50 was 7.00 to 8.00.

Consider `CCCn1cc(C2(c3cccc(-c4cccnc4F)c3)N=C(N)N(C)C2=O)cc1C(=O)CC` (stereo not shown) [Example 149, 2-Amino-5-[3-(2-fluoropyridin-3-yl)phenyl]-3-methyl-5-(5-propionyl-1-propyl-1H-pyrrol-3-yl)-3,5-dihydro-4H-imidazol-4-one], for which the melting point came out at 118 °C. In addition, the pIC50 at human BACE1 is 7.00 to 8.00.

In turn, `CCC(=O)c1cc(C2(c3cccc(-c4cccnc4F)c3)N=C(N)N(C)C2=O)cn1Cc1cscn1` (stereo not shown) [Example 182] had a melting point of 116 to 120 °C. Further, the pIC50 on human BACE1 is 7.00 to 8.00.

In the case of `COC(=O)c1cc(C2(c3cccc(-c4ccc(F)c(F)c4)c3)N=C(N)N(C)C2=O)cn1CCF` (stereo not shown) [Example 198], the melting point lay in the range of 125 to 128 °C. Also, at human BACE1, the pIC50 was 7.00 to 8.00.

`CCOc1cccc(-c2cccc(C3(c4cnn(CC(F)(F)F)c4)N=C(N)N(C)C3=O)c2)c1` (stereo not shown) [Example 83] registered a melting point of 88 to 90 °C. Besides, the pIC50 on human BACE1 was 7.00 to 8.00.

On to `CCC(=O)c1cc(C2(c3cccc(-c4cccc(OC)c4)c3)N=C(N)N(C)C2=O)cn1CC(F)(F)F` (stereo not shown) [Example 202], for which the melting point lay within 103 to 105 °C. Also, the pIC50 on human BACE1 was 7.00 to 8.00.

Consider `CCCOc1cccc(C2(c3cc(C(=O)CC)n(CC)c3)N=C(N)N(C)C2=O)c1` (stereo not shown) [Example 132, 2-Amino-5-(1-ethyl-5-propionyl-1H-pyrrol-3-yl)-3-methyl-5-(3-propoxyphenyl)-3,5-dihydro-4H-imidazol-4-one], for which the melting point turned out to be 95 °C. Also, the pIC50 on human BACE1 was 7.00 to 8.00.

Turning to `CN1C(=O)C(c2cccc(-c3cccnc3)c2)(c2cnn(CC(F)(F)F)c2)N=C1N` (stereo not shown) [Example 88], the melting point fell in the range of 202 to 204 °C. At human BACE1, this molecule showed a pIC50 of 6.00 to 6.96.

`COC(=O)c1cc(C2(c3ccc(F)c(-c4cncnc4)c3)N=C(N)N(C)C2=O)cn1CC(F)(F)F` (stereo not shown) [Example 121]: the melting point was in the range of 182 to 184 °C. For the same molecule, the pIC50 at human BACE1 is 7.00 to 8.00.

For `C=CCCCOc1cccc(C2(c3cc(C(=O)CC)n(CC)c3)N=C(N)N(C)C2=O)c1` (stereo not shown) [Example 140], the melting point came to 69 °C. This molecule also gave a negative logarithm of the IC50 (pIC50) on human BACE1 of 7.00 to 8.00.

With `Cc1sccc1C1(c2cccc(-c3cncnc3)c2)N=C(N)N(C)C1=O` (stereo not shown) [Example 27, 2-Amino-5-(2-methylthien-3-yl)-3-methyl-5-(3-pyrimidin-5-ylphenyl)-3,5-dihydro-4H-imidazol-4-one], the melting point lay in the range of 154 to 159 °C. This molecule had a pIC50 at human BACE1 of 6.00 to 6.96.

`CN1C(=O)C(c2cccc(-c3cncnc3)c2)(c2cscn2)N=C1N` (stereo not shown) [Example 41, 2-Amino-3-methyl-5-(3-pyrimidin-5-ylphenyl)-5-(1,3-thiazol-4-yl)-3,5-dihydro-4H-imidazol-4-one] returned a melting point of 234 to 237 °C. The negative logarithm of the IC50 (pIC50) on human BACE1 is 6.00 to 6.96.

`CCN(CC)Cc1cc(C2(c3cccc(-c4cccnc4F)c3)N=C(N)N(C)C2=O)cn1CCF` (stereo not shown) [Example 235, 2-Amino-5-[5-[(diethylamino)methyl]-1-(2-fluoroethyl)-1H-pyrrol-3-yl]-5-[3-(2-fluoropyridin-3-yl)phenyl]-3-methyl-3,5-dihydro-4H-imidazol-4-one] yielded a melting point of 121 to 140 °C. In addition, the pIC50 on human BACE1 was less than 6.00.

As to `CCc1cc(C2(c3cccc(-c4cncnc4)c3)N=C(N)N(C)C2=O)cs1` (stereo not shown) [Example 29], the melting point was 144 to 146 °C. The same molecule showed a pIC50 at human BACE1 of 7.00 to 8.00.

Molecule `Cc1c(C2(c3cccc(-c4cccnc4F)c3)N=C(N)N(C)C2=O)cnn1CC(F)(F)F` (stereo not shown) [Example 2, 2-Amino-5-[3-(2-fluoropyridin-3-yl)phenyl]-3-methyl-5-[5-methyl-1-(2,2,2-trifluoroethyl)-1H-pyrazol-4-yl]-3,5-dihydro-4H-imidazol-4-one] yielded a melting point of 235 to 238 °C. This molecule also gave a pIC50 on human BACE1 of 6.00 to 6.96.

Turning to `CN(C)Cc1cc(C2(c3cccc(-c4cccnc4F)c3)N=C(N)N(C)C2=O)cn1CCF` (stereo not shown) [Example 238], the melting point is 118 to 121 °C. This molecule had a pIC50 on human BACE1 of 6.00 to 6.96.

Molecule `CN1C(=O)C(c2cccc(-c3cccnc3F)c2)(c2cc(C#N)n(CCF)c2)N=C1N` (stereo not shown) [Example 231] gave a melting point of 175 to 177 °C. The same molecule showed a negative-log IC50 (pIC50) on human BACE1 of 7.00 to 8.00.

Consider `CN1C(=O)C(c2cccc(-c3cncnc3)c2)(c2csc(Cl)c2)N=C1N` (stereo not shown) [Example 32], for which the melting point was 236 to 240 °C. In addition, on human BACE1, the pIC50 is 7.00 to 8.00.

`COC(=O)c1cc(C2(c3cccc(-c4ccc(F)nc4)c3)N=C(N)N(C)C2=O)cn1CCF` (stereo not shown) [Example 191] yielded a melting point of 206 to 210 °C. In addition, the pIC50 on human BACE1 was 7.00 to 8.00.

In turn, `CCn1cc(C2(c3cccc(-c4cccnc4F)c3)N=C(N)N(C)C2=O)cc1C(=O)N1CCOCC1` (stereo not shown) [Example 164] came in with a melting point of 108 to 109 °C. This molecule also showed a pIC50 on human BACE1 of 7.00 to 8.00.

In turn, `CCC(=O)c1cc(C2(c3cccc(OCC4CC4)c3)N=C(N)N(C)C2=O)cn1CC` (stereo not shown) [Example 137] registered a melting point of 86 °C. This molecule also showed a pIC50 on human BACE1 of 7.00 to 8.00.

`CN1C(=O)C(c2ccsc2)(c2cccc(-c3cnccn3)c2)N=C1N` (stereo not shown) [Example 33] registered a melting point of 223 °C. At human BACE1, the pIC50 is 7.00 to 8.00.

Take `CC(C)CCOc1cccc(C2(c3ccsc3)N=C(N)N(C)C2=O)c1` (stereo not shown) [Example 144]: the melting point is 84 to 88 °C. Besides, at human BACE1, the pIC50 was 6.00 to 6.96.

As to `CCC(=O)c1cc(C2(c3cccc(-c4ccc(F)c(Cl)c4)c3)N=C(N)N(C)C2=O)cn1CC(F)(F)F` (stereo not shown) [Example 205], the melting point lay in the range of 107 to 108 °C. The same molecule gave a pIC50 at human BACE1 of 7.00 to 8.00.

Molecule `CCCn1cc(C2(c3cccc(-c4cccnc4F)c3)N=C(N)N(C)C2=O)cc1C#N` (stereo not shown) [Example 230] came in with a melting point of 187 to 188 °C. This molecule also had a negative logarithm of the IC50 (pIC50) at human BACE1 of 7.00 to 8.00.

`CCCCNC(=O)c1cc(C2(c3cccc(-c4cccnc4F)c3)N=C(N)N(C)C2=O)cn1CC` (stereo not shown) [Example 160] returned a melting point of 118 to 120 °C. Also, the pIC50 on human BACE1 was 7.00 to 8.00.

In turn, `CC(C)COc1cccc(C2(c3ccsc3)N=C(N)N(C)C2=O)c1` (stereo not shown) [Example 148] showed a melting point of 70 to 73 °C. The molecule also showed a pIC50 at human BACE1 of 6.00 to 6.96.

Molecule `CN1C(=O)C(c2cccc(-c3cccnc3F)c2)(c2cc(C#N)n(C)c2)N=C1N` (stereo not shown) [Example 226] gave a melting point of 213 to 220 °C. This molecule also gave a pIC50 on human BACE1 of 6.00 to 6.96.

As to `COC(=O)c1cc([C@]2(c3ccc(F)c(-c4cccnc4F)c3)N=C(N)N(C)C2=O)cn1CCF` [Example 184A, Methyl 4-{(4S)-2-amino-4-[4-fluoro-3-(2-fluoropyridin-3-yl)phenyl]-1-methyl-5-oxo-4,5-dihydro-1H-imidazol-4-yl}-1-(2-fluoroethyl)-1H-pyrrole-2-carboxylate], the melting point fell in the range of 111 to 113 °C. Also, at human BACE1, the pIC50 is 7.00 to 8.00.

As to `COC(=O)c1cc(C2(c3cccc(-c4cc(F)ccc4F)c3)N=C(N)N(C)C2=O)cn1CCF` (stereo not shown) [Example 192], the melting point lay in the range of 166 to 170 °C. Further, the pIC50 on human BACE1 is 7.00 to 8.00.

`COC(=O)c1cc([C@]2(c3ccc(F)c(-c4cncnc4)c3)N=C(N)N(C)C2=O)cn1CCF` [Example 119A, Methyl 4-[(4S)2-Amino-4-(4-fluoro-3-pyrimidinyl-5-phenyl)-1-methyl-5-oxo-4,5-dihydro-1H-imidazol-4-yl]-1-(2-fluoroethyl)-1H-pyrrole-2-carboxylate] registered a melting point of 186 to 188 °C. Moreover, the pIC50 on human BACE1 is 7.00 to 8.00.

Regarding `COc1cncc(-c2cccc(C3(c4ccsc4)N=C(N)N(C)C3=O)c2)c1` (stereo not shown) [Example 37], the melting point worked out at 197 °C. For the same molecule, the negative logarithm of the IC50 (pIC50) on human BACE1 was 7.00 to 8.00.

For the molecule `CN1C(=O)C(c2ccsc2)(c2cccc(OCC3CCCCC3)c2)N=C1N` (stereo not shown) [Example 147], the melting point lay within 88 to 90 °C. At human BACE1, this molecule gave a pIC50 of less than 6.00.
